# Results from ChEMBL document CHEMBL5608173, “Discovery of novel natural-product-derived mutant isocitrate dehydrogenases 1 inhibitors: Structure-based virtual screening, biological evaluation and structure-activity relationship study” (Eur J Med Chem, 2024).
# Calls of active or inactive are those of the source. The calls are words filed in the database; no cut-off is given here.
# Key:
# [1] = system: Isocitrate dehydrogenase [NADP] cytoplasmic (Homo sapiens), O75874 [R132H]; test: Inhibition of recombinant human IDH1 R132H mutant extracted from Escherichia coli BL21 (DE3) cells using alpha-ketoglutarate as substrate at 2 uM incubated for 60 mins in presence of NADPH by absorbance based assay relative to control
# [2] = system: Isocitrate dehydrogenase [NADP] cytoplasmic (Homo sapiens), O75874 [R132H]; test: Inhibition of recombinant human IDH1 R132H mutant extracted from Escherichia coli BL21 (DE3) cells using alpha-ketoglutarate as substrate at 0.2 uM incubated for 60 mins in presence of NADPH by absorbance based assay relative to control
# [3] = system: Isocitrate dehydrogenase [NADP] cytoplasmic (Homo sapiens), O75874 [R132C]; test: Inhibition of recombinant human IDH1 R132C mutant extracted from Escherichia coli BL21 (DE3) cells using alpha-ketoglutarate as substrate at 2 uM incubated for 60 mins in presence of NADPH by absorbance based assay relative to control
# [4] = system: Isocitrate dehydrogenase [NADP] cytoplasmic (Homo sapiens), O75874 [R132C]; test: Inhibition of recombinant human IDH1 R132C mutant extracted from Escherichia coli BL21 (DE3) cells using alpha-ketoglutarate as substrate at 0.2 uM incubated for 60 mins in presence of NADPH by absorbance based assay relative to control
# L02 = test: Cytotoxicity against human L02 cells assessed as inhibition of cell growth at 50 uM; type: toxicity, cell-based; conditions: l02, 50 µM
# [5] = target: Isocitrate dehydrogenase [NADP] cytoplasmic (Homo sapiens, UniProt O75874); test: Inhibition of recombinant human wildtype IDH1 extracted from Escherichia coli BL21 (DE3) cells using alpha-ketoglutarate as substrate incubated for 60 mins in presence of NADPH by absorbance based assay
# [6] = system: Isocitrate dehydrogenase [NADP] cytoplasmic (Homo sapiens), O75874 [R132H]; test: Inhibition of IDH1 R132H mutant in human U-87 MG cells assessed as reduction in 2-HG level at 10 uM incubated for 48 hrs in presence of NAD+ by resazurin fluorescence dye based Sigma MAK320-1 assay kit analysis relative to control; type: cell-based
# HT-1080 [7] = test: Antiproliferative activity against human HT-1080 cells harboring IDH1 R132C mutant assessed as reduction in cell viability at 10 uM incubated for 72 hrs by MTT assay; type: functional, cell-based
# HT-1080 [8] = test: Antiproliferative activity against human HT-1080 cells harboring IDH1 R132C mutant assessed as reduction in cell viability incubated for 72 hrs by MTT assay; type: functional
# [9] = target: T1, Isocitrate dehydrogenase [NADP] cytoplasmic (Homo sapiens, UniProt O75874, R132H); test: Inhibition of IDH1 R132H mutant (unknown origin)
# [10] = target: T2, Isocitrate dehydrogenase [NADP] cytoplasmic (Homo sapiens, UniProt O75874, R132C); test: Inhibition of IDH1 R132C mutant (unknown origin)
# U-87 MG [11] = test: Antiproliferative activity against human U-87 MG cells harboring IDH1 R132H mutant assessed as reduction in cell viability incubated for 72 hrs by MTT assay; type: functional, U-87MG ATCC
# U-87 MG [12] = test: Antiproliferative activity against human U-87 MG cells assessed as reduction in cell viability incubated for 72 hrs by MTT assay; type: functional, U-87MG ATCC
# [13] = target: T1, Isocitrate dehydrogenase [NADP] cytoplasmic; test: Inhibition of recombinant human IDH1 R132H mutant extracted from Escherichia coli BL21 (DE3) cells using alpha-ketoglutarate as substrate incubated for 60 mins in presence of NADPH by absorbance based assay
# [14] = target: T2, Isocitrate dehydrogenase [NADP] cytoplasmic; test: Inhibition of recombinant human IDH1 R132C mutant extracted from Escherichia coli BL21 (DE3) cells using alpha-ketoglutarate as substrate incubated for 60 mins in presence of NADPH by absorbance based assay
# [15] = target: T2, Isocitrate dehydrogenase [NADP] cytoplasmic; test: Inhibition of IDH1 R132C mutant in human HT-1080 cells assessed as reduction in 2-HG level incubated for 48 hrs in presence of NAD+ by resazurin fluorescence dye based Sigma MAK320-1 assay kit analysis; type: cell-based
# [16] = target: T1, Isocitrate dehydrogenase [NADP] cytoplasmic; test: Inhibition of IDH1 R132H mutant in human U-87 MG cells assessed as reduction in 2-HG level incubated for 48 hrs in presence of NAD+ by resazurin fluorescence dye based Sigma MAK320-1 assay kit analysis; type: cell-based
# T2 sequence (O75874 2-414 R132C limits assumed): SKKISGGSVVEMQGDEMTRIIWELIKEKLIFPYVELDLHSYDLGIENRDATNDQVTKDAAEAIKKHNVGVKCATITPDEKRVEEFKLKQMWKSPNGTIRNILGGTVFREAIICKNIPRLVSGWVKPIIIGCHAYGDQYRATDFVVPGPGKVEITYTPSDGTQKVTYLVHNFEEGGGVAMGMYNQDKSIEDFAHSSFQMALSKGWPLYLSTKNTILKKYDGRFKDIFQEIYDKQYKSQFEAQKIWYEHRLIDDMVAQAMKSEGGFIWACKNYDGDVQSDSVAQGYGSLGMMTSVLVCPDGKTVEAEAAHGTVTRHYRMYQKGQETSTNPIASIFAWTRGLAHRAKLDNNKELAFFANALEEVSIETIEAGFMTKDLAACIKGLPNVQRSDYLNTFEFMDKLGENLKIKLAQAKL
# T1 sequence (O75874 2-414 R132H limits assumed): as the sequence (O75874 2-414 R132C limits assumed) above, with C131H counted along it
# Isocitrate dehydrogenase [NADP] cytoplasmic (Homo sapiens, UniProt O75874), sequence (O75874 whole entry): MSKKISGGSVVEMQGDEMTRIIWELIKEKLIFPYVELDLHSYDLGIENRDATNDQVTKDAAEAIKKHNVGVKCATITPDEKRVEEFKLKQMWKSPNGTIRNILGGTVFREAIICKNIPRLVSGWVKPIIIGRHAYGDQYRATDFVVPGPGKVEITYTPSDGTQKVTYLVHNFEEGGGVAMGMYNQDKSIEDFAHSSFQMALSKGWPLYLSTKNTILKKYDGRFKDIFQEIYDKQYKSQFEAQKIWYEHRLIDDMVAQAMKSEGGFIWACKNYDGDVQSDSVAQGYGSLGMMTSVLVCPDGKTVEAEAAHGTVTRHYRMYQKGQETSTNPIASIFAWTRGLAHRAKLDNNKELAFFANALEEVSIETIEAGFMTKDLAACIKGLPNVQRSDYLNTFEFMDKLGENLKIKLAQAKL
# Isocitrate dehydrogenase [NADP] cytoplasmic (Homo sapiens), O75874 [R132C], sequence (O75874 whole entry R132C): as the sequence (O75874 whole entry) above, with R132C counted along it
# Isocitrate dehydrogenase [NADP] cytoplasmic (Homo sapiens), O75874 [R132H], sequence (O75874 whole entry R132H): as the sequence (O75874 whole entry) above, with R132H counted along it
SMILES,inhibition [1],inhibition [2],inhibition [3],inhibition [4],further results
COc1cc(O)c(-c2cc(-c3ccc(O)cc3)nc(N3CCCCC3)n2)cc1CC=C(C)C,93.6%,9.4%,89.7%,11.8%,–
COc1ccc(-c2cc(-c3cc(CC=C(C)C)c(OC)cc3OC)nc(-c3ncccn3)n2)cc1,87.3%,12.1%,92.4%,24.7%,Activity (L02): Toxic
CC(Cc1ccc(O)c(O)c1)C(C)Cc1ccc(O)c(O)c1 (stereo unspecified) [NORDIHYDROGUAIARETIC ACID],51.2%,–,–,–,IC50 [5]: > 20000 nM; inhibition [6]: < 10%
COc1cc(O)c(C(=O)/C=C/c2ccc(O)cc2)cc1CC=C(C)C,54%,14.9%,46.3%,inactive,IC50 [5]: > 20000 nM; inhibition [6]: 35.8%
COc1cc(O)c(-c2cc(-c3ccc(O)cc3)nc(-c3ccncc3)n2)cc1CC=C(C)C,56.7%,9.7%,68.1%,28.2%,Activity (HT-1080 [7]): Active; Activity (L02): Toxic; GC50 (HT-1080 [8]): 6000 nM
COc1cc(O)c(-c2cc(-c3ccc(O)cc3)nc(N3CCN(C(C)=O)CC3)n2)cc1CC=C(C)C,61.2%,34.7%,69.4%,12.8%,–
COc1cc(O)c(-c2cc(-c3ccc(O)cc3)ncn2)cc1CC=C(C)C,47.2%,13.4%,58.6%,17.8%,Activity (L02): Toxic
COc1cc(O)c(-c2cc(-c3ccc(O)cc3)nc(-c3ccncc3Cl)n2)cc1CC=C(C)C,95.1%,10.5%,74.1%,14.9%,–
COc1cc(OC)c(C(=O)/C=C/c2ccc(O)cc2)cc1CC=C(C)C,inactive,inactive,inactive,inactive,–
COCOc1ccc(/C=C/C(=O)c2cc(CC=C(C)C)c(OC)cc2OC)cc1,inactive,inactive,inactive,inactive,–
COCOc1ccc(/C=C/C(=O)c2cc(CC=C(C)C)c(OC)cc2O)cc1,inactive,inactive,inactive,inactive,–
COc1c(C)cc(NC(=O)c2nn(Cc3ccc(F)cc3)c3c2CN(C(=O)c2ccc[nH]2)C[C@]3(C)C(N)=O)cc1C,–,–,–,–,IC50 [9]: 15.2 nM; IC50 [10]: 8.8 nM
COc1cc(OC)c(-c2cc(-c3ccc(O)cc3)nc(-c3ncccn3)n2)cc1CC=C(C)C,91.2%,33.4%,81.2%,11%,–
COC(=O)N1CCN(c2nc(-c3ccc(O)cc3)cc(-c3cc(CC=C(C)C)c(OC)cc3O)n2)CC1,75.4%,21.1%,80.1%,24.6%,–
COc1cc(O)c(-c2cc(-c3ccc(O)cc3)nc(N3CCOCC3)n2)cc1CC=C(C)C,82.1%,13.8%,94.6%,24.1%,–
COc1cc(O)c(-c2cc(-c3ccc(O)cc3)nc(-c3ncccn3)n2)cc1CC=C(C)C,> 100%,41.3%,> 100%,14.6%,–
COc1cc(O)c(-c2cc(-c3ccc(O)cc3)nc(C)n2)cc1CC=C(C)C,49.1%,13.6%,67.2%,12.5%,Activity (L02): Toxic
COc1cc(O)c(-c2cc(-c3ccc(O)cc3)nc(N)n2)cc1CC=C(C)C,30.7%,11.2%,47.5%,8.9%,–
COc1cc(O)c(-c2cc(-c3ccc(O)cc3)nc(-c3cccnc3)n2)cc1CC=C(C)C,48.3%,17.7%,57.9%,20.3%,Activity (L02): Toxic
COc1cc(O)c(-c2cc(-c3ccc(O)cc3)nc(-c3nccs3)n2)cc1CC=C(C)C,61.1%,11.1%,56.3%,inactive,–

# Continued, in another order:
inhibition [1],inhibition [2],inhibition [3],inhibition [4],SMILES,further results
58.1%,–,–,–,O=C(/C=C/c1ccc(O)cc1)OC[C@H]1O[C@@H](Oc2c(-c3ccc(O)cc3)oc3cc(O)cc(O)c3c2=O)[C@H](O)[C@@H](O)[C@@H]1O [TILIROSIDE],IC50 [5]: > 20000 nM; inhibition [6]: < 10%
37.4%,inactive,32.5%,10.4%,COc1cc(O)c(-c2cc(-c3ccc(O)cc3)nc(N3CCN(c4ncccn4)CC3)n2)cc1CC=C(C)C,–
60.1%,14.7%,70.4%,13.4%,COc1cc(O)c(-c2cc(-c3ccc(O)cc3)nc(C3CCCO3)n2)cc1CC=C(C)C (stereo unspecified),–
74%,33.1%,76.8%,22.7%,COc1cc(O)c(-c2cc(-c3ccc(O)cc3)nc(-c3ccccn3)n2)cc1CC=C(C)C,Activity (HT-1080 [7]): Active; Activity (L02): Toxic; GC50 (HT-1080 [8]): 850 nM; GC50 (U-87 MG [11]): >20000 nM; GC50 (U-87 MG [12]): >20000 nM
51.6%,7.6%,41.2%,10.3%,CCCCc1nc(-c2ccc(O)cc2)cc(-c2cc(CC=C(C)C)c(OC)cc2O)n1,–
88.5%,27%,96.4%,37.7%,COc1cc(O)c(-c2cc(-c3ccc(O)cc3)nc(-c3ccccc3)n2)cc1CC=C(C)C,–
> 100%,73.1%,97.5%,82%,COc1ccc(-c2cc(-c3ccc(O)cc3)nc(-c3ncccn3)n2)c(O)c1,IC50 [5]: > 20000 nM; IC50 [13]: 90.2 nM; IC50 [14]: 78.9 nM; EC50 [15]: 279 nM; EC50 [16]: 263 nM; Activity (L02): Toxic; GC50 (U-87 MG [11]): 6800 nM; GC50 (U-87 MG [12]): >20000 nM
81.8%,17.2%,67.3%,24.5%,COc1cc(O)c(-c2cc(-c3ccc(O)cc3)nc(-c3cnccn3)n2)cc1CC=C(C)C,–
17.5%,inactive,29.1%,14.2%,COc1cc(O)c(-c2cc(-c3ccc(O)cc3)[nH]n2)cc1CC=C(C)C,–
70.2%,5%,84.3%,30.9%,COc1cc(O)c(-c2cc(-c3ccc(O)cc3)nc(N3CCCC3)n2)cc1CC=C(C)C,–
60.4%,13.5%,53.1%,14.7%,COc1cc(O)c(-c2cc(-c3ccc(O)cc3)nc(C(C)(C)C)n2)cc1CC=C(C)C,–
89.4%,30.5%,81.9%,40.1%,COc1cc(O)c(-c2cc(-c3ccc(O)cc3)nc(-c3nn(Cc4ccccc4F)c4ncccc34)n2)cc1CC=C(C)C,–
